The text below walks through data of ChEMBL document CHEMBL1134801, “Dibasic inhibitors of human mast cell tryptase. Part 3: identification of a series of potent and selective inhibitors containing the benzamidine functionality” (Bioorg Med Chem Lett, 2001).

For orientation: Ki means the dissociation constant of the complex between target and ligand, obtained from inhibition or displacement. Read a high Ki as lower affinity.

Molecules are shown by their SMILES.

Data set [1] concerns the target Plasminogen (Homo sapiens, UniProt P00747). Kind of data set: Inhibition plasmin in human mast cells. The class given is cell-based.
In data set [2] the target is Prothrombin (Homo sapiens, UniProt P00734). Nature of the data set: Inhibition of thrombin in human mast cells. The class given is cell-based.
The target of data set [3] is Tryptase (Homo sapiens, UniProt Q9BZJ3+Q15661+Q9NRR2). Nature of the data set: Inhibition of Tryptase in human mast cells. The format is cell-based.
The target in data set [4] is Trypsin (Homo sapiens, UniProt P07477+P07478+P35030). Nature of the data set: Inhibition of trypsin in human mast cells. The format is cell-based.
The nature of data set [5]: Michaelis-Menten constant was determined for the compound after incubation with plasma amine oxidase. The class given is ADME, cell-free.

Chain of Plasminogen (P00747 97-580 limits assumed): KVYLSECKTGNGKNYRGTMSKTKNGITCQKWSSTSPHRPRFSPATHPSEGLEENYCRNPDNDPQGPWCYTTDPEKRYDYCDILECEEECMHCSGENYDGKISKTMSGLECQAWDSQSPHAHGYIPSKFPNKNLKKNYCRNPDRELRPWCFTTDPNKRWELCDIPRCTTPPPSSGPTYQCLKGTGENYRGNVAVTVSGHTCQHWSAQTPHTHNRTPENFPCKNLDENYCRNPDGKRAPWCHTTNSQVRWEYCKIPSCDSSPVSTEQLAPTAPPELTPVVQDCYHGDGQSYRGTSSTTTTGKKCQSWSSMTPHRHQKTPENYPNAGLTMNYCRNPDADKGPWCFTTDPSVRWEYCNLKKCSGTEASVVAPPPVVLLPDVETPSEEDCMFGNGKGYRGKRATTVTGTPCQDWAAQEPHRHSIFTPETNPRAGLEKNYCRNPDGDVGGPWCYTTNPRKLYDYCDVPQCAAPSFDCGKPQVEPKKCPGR
Chain of Plasminogen (P00747 581-810 limits assumed): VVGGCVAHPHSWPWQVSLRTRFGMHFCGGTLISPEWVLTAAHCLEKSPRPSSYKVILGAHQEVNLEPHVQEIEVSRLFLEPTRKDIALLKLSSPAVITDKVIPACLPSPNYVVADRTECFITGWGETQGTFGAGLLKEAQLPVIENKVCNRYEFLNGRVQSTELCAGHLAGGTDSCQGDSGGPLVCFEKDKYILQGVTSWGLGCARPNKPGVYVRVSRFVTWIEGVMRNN

As to `N=C(N)N1CCC(CCNC(=O)CNC(=O)OCc2ccc(COC(=O)NCC(=O)NCCC3CCN(C(=N)N)CC3)cc2)CC1`, the inhibition constant (Ki) in data set [1] was > 1000 µM; in data set [2], 423 µM; in data set [3] it was 0.11 µM; in data set [4], > 1000 µM.
With `N=C(N)c1ccc(CNC(=O)N2CCN(C(=O)O[C@H]3CCC[C@@H](OC(=O)N4CCN(C(=O)NCc5ccc(C(=N)N)cc5)CC4)CCC3)CC2)cc1`, the Ki in data set [3] stood at 0.0087 µM; in data set [4], 25 µM.
On to `NCC1CCN(C(=O)NCC2CCN(C(=O)OCc3ccc(COC(=O)N4CCC(CNC(=O)N5CCC(CN)CC5)CC4)cc3)CC2)CC1`, for which the Ki is > 1000 µM in data set [1], > 1000 µM in data set [2], 0.024 µM in data set [3] and 515 µM in data set [4]. For the same molecule, the “Vmax / Km” value in data set [5] turned out to be 1870.
With `NCC1CCN(C(=O)NCCCCNC(=O)OCc2ccc(COC(=O)NCCCCNC(=O)N3CCC(CN)CC3)cc2)CC1`, the Ki in data set [1] was > 1000 µM; in data set [2], > 1000 µM; in data set [3] it was 0.112 µM; in data set [4], > 1000 µM.
As for `N=C(N)c1ccc(CNC(=O)N2CCN(C(=O)O[C@H]3CCC[C@@H](OC(=O)N4CCN(C(=O)NCCC5CCNCC5)CC4)CCC3)CC2)cc1`, the Ki in data set [1] stood at 287 µM; in data set [2], 111 µM; in data set [3], 0.00091 µM; in data set [4], 47.2 µM.
Turning to `N=C(N)c1ccc(S(=O)(=O)NCC2CCN(C(=O)O[C@H]3CCC[C@@H](OC(=O)N4CCN(C(=O)NCCC5CCNCC5)CC4)CCC3)CC2)cc1`, the Ki is > 1000 µM in data set [1], > 1000 µM in data set [2], 0.028 µM in data set [3] and 16.8 µM in data set [4].
Consider `N=C(N)c1ccc(CNC(=O)N2CCN(C(=O)O[C@H]3CCC[C@@H](OC(=O)N4CCN(C(=O)CCCC5CCNCC5)CC4)CCC3)CC2)cc1`, for which the Ki in data set [1] was 310 µM; in data set [2] it was 102 µM; in data set [3], 0.00112 µM; in data set [4] it was 52.1 µM.
In the case of `N=C(N)c1ccc(C(=O)NCC2CCN(C(=O)O[C@H]3CCC[C@@H](OC(=O)N4CCC(CNC(=O)c5ccc(C(=N)N)cc5)CC4)CCC3)CC2)cc1`, the Ki in data set [1] is 62.2 µM; in data set [2] it was 20.8 µM; in data set [3] it was 0.00085 µM; in data set [4] it was 4.67 µM.
As to `N=C(N)c1ccc(NC(=O)CC2CCN(C(=O)O[C@H]3CCC[C@@H](OC(=O)N4CCN(C(=O)NCCC5CCNCC5)CC4)CCC3)CC2)cc1`, the Ki in data set [1] came to 293 µM; in data set [2] it was 52.9 µM; in data set [3], 0.0089 µM; in data set [4], 21.1 µM.
Take `N=C(N)c1ccc(C(=O)NCC2CCN(C(=O)O[C@H]3CCC[C@@H](OC(=O)N4CCN(C(=O)NCCC5CCNCC5)CC4)CCC3)CC2)cc1`: the inhibition constant Ki in data set [1] came out at 279 µM; in data set [2] it was 41.2 µM; in data set [3] it was 0.016 µM; in data set [4] it was 38.8 µM.
On the same counts, the results for `N=C(N)N1CCC(CNC(=O)CNC(=O)OCc2ccc(COC(=O)NCC(=O)NCC3CCN(C(=N)N)CC3)cc2)CC1` are > 1000 µM, 386 µM, 0.155 µM and 466 µM.
Turning to `N=C(N)c1ccc(CC(=O)N2CCN(C(=O)O[C@H]3CCC[C@@H](OC(=O)N4CCN(C(=O)NCCC5CCNCC5)CC4)CCC3)CC2)cc1`, the inhibitory constant (Ki) in data set [1] was > 1000 µM; in data set [2] it was 94.4 µM; in data set [3], 0.0067 µM; in data set [4] it was 63.1 µM.
Regarding `N=C(N)c1ccc(C(=O)NCC2CCN(C(=O)OCc3ccc(COC(=O)N4CCC(CNC(=O)c5ccc(C(=N)N)cc5)CC4)cc3)CC2)cc1`, the Ki in data set [1] is 0.006 µM; in data set [2] it was 42.2 µM; in data set [4], 4.4 µM.
In the case of `N=C(N)c1ccc(C(=O)NCC2CCN(C(=O)O[C@H]3CCC[C@@H](OC(=O)N4CCN(C(=O)CCCC5CCNCC5)CC4)CCC3)CC2)cc1`, the Ki in data set [1] is 320 µM; in data set [2] it was 31.9 µM; in data set [3], 0.0164 µM; in data set [4] it was 37.4 µM.
On the same counts, the results for `COC(=O)NC(=N)c1ccc(CNC(=O)N2CCN(C(=O)O[C@H]3CCC[C@@H](OC(=O)N4CCN(C(=O)NCCC5CCNCC5)CC4)CCC3)CC2)cc1` are > 1000 µM, 561 µM, 0.0406 µM and 554 µM.
